Reference: patent US9888689B2, “Compositions containing a pyripyropene insecticide and an adjuvant” (BASF SE, priority 2010, dated 2018)

Columns and labels:
[1] = Stability of crystalline hydrate forms of compound of formula I; type: physicochemical
Excerpt: As pointed out above, a further aspect of the present invention relates to the hydrate B of the compound of formula I. Form B is a non-stoichiometric hydrate of the compound of formula I. The typical water content is in the range from 7.5 to 9 wt % and in particular about 8.5 wt %, i.e. 8.5±0.2 wt %. The water content can be determined by thermo-gravimetric analysis (TGA).

[2] = tested on: Plutella xylostella L larvae; settings: cited from earlier work
[3] = tested on: larvae of Helicoverpa zea; settings: cited from earlier work
Tenebrio molitor L = settings: cited from earlier work

C[C@]1(COC(=O)C2CC2)[C@@H]2C[C@H](O)[C@@]3(C)Oc4cc(-c5cccnc5)oc(=O)c4[C@H](O)[C@@H]3[C@@]2(C)CC[C@@H]1OC(=O)C1CC1 [Form B]
conversion of the hydrate form ([1]; dried at elevated temperatures, e.g. >50 °C): slowly converts into amorphous material | stability of the hydrate form ([1]; room temperature, in contact with aqueous solvent or water or at high degrees of humidity, e.g. 90%): stable | conversion of the hydrate form ([1]; when the mother liquor is removed or humidity is reduced): slowly converts into form C

C[C@]1(COC(=O)C2CC2)[C@@H]2C[C@H](O)[C@@]3(C)Oc4cc(-c5cccnc5)oc(=O)c4[C@H](O)[C@@H]3[C@@]2(C)CC[C@@H]1OC(=O)C1CC1 [Form C]
stability of the hydrate form ([1]; ambient conditions): stable at ambient conditions over weeks and month

CC(=O)OC[C@@]1(C)[C@@H]2C[C@H](OC(C)=O)[C@@]3(C)Oc4cc(-c5cccnc5)oc(=O)c4[C@H](O)[C@@H]3[C@@]2(C)CC[C@@H]1OC(C)=O [Pyripyropene A]
insecticidal activity [2]: insecticidal activity | insecticidal activity [3]: insecticidal activity | insecticidal activity (Tenebrio molitor L): insecticidal activity
